Test results taken from patent US11395847B2, “Acylated GLP-1/GLP-2 dual agonists” (Zealand Pharma A/S, priority 2016, dated 2022).
Where a SMILES comes first, the peptide text is derived from it.

Assays:
human GLP-1 receptor = target: T1, human GLP-1 receptor (Homo sapiens, UniProt P43220); experiment: GLP-1 receptor potency assay (cAMP ALPHASCREEN, HEK293 cells stably expressing GLP-1 R); assay type: cell-based; details: cAMP response, HEK293 cells expressing human GLP-1 R
T1 construct: expressed in transfected cells
T1 sequence (P43220 24-463): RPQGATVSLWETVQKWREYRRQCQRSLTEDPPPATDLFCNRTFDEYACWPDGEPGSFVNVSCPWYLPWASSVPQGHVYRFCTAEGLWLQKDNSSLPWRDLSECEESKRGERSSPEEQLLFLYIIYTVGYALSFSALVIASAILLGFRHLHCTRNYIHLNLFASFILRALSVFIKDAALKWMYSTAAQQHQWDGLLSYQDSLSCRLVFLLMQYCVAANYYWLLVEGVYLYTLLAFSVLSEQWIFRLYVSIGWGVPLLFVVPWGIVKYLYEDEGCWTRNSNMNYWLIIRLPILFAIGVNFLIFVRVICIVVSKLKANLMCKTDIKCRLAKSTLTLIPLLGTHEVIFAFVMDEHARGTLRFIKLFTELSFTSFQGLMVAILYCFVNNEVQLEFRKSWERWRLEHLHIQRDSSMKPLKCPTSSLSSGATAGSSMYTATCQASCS
Outline: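 Clonal HEK293 line stably transfected with human GLP-1R (G418-selected) was treated with test compounds and the cAMP response quantified by ALPHASCREEN. Signals were normalized to positive control and vehicle, with EC50 and maximal response taken from concentration-response curves.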

human GLP-2 receptor = target: T2, human GLP-2 receptor (Homo sapiens, UniProt O95838, D470N); experiment: GLP-2 receptor potency assay (cAMP ALPHASCREEN, HEK293 cells stably expressing GLP-2 R); assay type: cell-based; details: cAMP response, HEK293 cells expressing human GLP-2 R; read-out: EC50 GLP-2
T2 construct: expressed in transfected cells
T2 sequence (O95838 1-553 D470N): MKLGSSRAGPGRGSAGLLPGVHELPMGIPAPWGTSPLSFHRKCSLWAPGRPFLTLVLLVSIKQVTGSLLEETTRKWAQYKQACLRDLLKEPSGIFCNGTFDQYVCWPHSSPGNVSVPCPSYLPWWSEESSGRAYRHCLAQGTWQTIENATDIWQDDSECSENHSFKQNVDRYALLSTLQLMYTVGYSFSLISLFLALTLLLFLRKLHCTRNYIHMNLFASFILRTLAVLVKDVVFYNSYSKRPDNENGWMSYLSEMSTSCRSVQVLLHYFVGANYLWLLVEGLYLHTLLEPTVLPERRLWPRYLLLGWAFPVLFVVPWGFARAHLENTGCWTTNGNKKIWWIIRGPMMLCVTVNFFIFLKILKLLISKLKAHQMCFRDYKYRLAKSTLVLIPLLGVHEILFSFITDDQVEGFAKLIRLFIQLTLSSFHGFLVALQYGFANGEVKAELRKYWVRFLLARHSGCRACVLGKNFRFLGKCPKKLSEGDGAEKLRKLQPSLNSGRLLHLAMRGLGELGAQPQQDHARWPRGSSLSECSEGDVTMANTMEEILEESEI
Outline: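 HEK293 clones stably transfected with the human GLP-2 receptor, selected with G418, were used. Intracellular cAMP was quantified by AlphaScreen. Responses were normalised to positive and vehicle controls, and EC50 and maximal response were taken from concentration-response curves.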

[1] = Chemical stability (RP-HPLC normalized purity after incubation at 40° C.); assay type: physicochemical; details: 14-day incubation, 0.2 mg/ml, normalized purity (area-%)
Outline: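 Peptide at 0.2 mg/ml final in water adjusted to pH 6, 7, 7.5 or 9, incubated at 40° C for 14 days. Purity measured as main-peak area-% by C18 RP-HPLC (acetonitrile/TFA/water gradient, UV 220 nm) and normalized to T=0 set at 100 for each pH.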

SMILES	EC50 (human GLP-1 receptor) [nM]	EC50 (human GLP-2 receptor) [nM]	pH 6 normalized stability ([1]; pH 6, 40° C.)	pH 7 normalized stability ([1]; pH 7, 40° C.)
CC[C@H](C)[C@H](NC(=O)[C@H](Cc1ccccc1)NC(=O)[C@H](CC(=O)O)NC(=O)[C@H](CCCNC(=N)N)NC(=O)[C@H](C)NC(=O)[C@H](C)NC(=O)[C@H](CCC(N)=O)NC(=O)[C@H](CCCCNC(=O)CC[C@H](NC(=O)CCCCCCCCCCCCCCCCC(=O)O)C(=O)O)NC(=O)[C@H](CC(=O)O)NC(=O)[C@H](CC(C)C)NC(=O)[C@@H](NC(=O)[C@@H](NC(=O)[C@H](C)NC(=O)[C@H](CC(C)C)NC(=O)[C@H](CCC(=O)O)NC(=O)[C@H](CO)NC(=O)[C@@H](NC(=O)[C@H](Cc1ccccc1)NC(=O)[C@H](CO)NC(=O)CNC(=O)[C@H](CCC(=O)O)NC(=O)C(C)(C)NC(=O)[C@@H](N)Cc1c[nH]cn1)[C@@H](C)O)[C@@H](C)O)[C@@H](C)CC)C(=O)N[C@@H](C)C(=O)N[C@@H](Cc1c[nH]c2ccccc12)C(=O)N[C@@H](CC(C)C)C(=O)N[C@H](C(=O)N[C@@H](CO)C(=O)N[C@@H](Cc1c[nH]cn1)C(=O)N[C@@H](CCCCN)C(=O)N[C@H](C(=O)N[C@H](C(=O)N[C@@H](CC(=O)O)C(=O)O)[C@@H](C)O)[C@@H](C)CC)[C@@H](C)CC [Compound 31] (HELM PEPTIDE1{H.[Aib].E.G.S.F.T.S.E.L.A.T.I.L.D.K.Q.A.A.R.D.F.I.A.W.L.I.S.H.K.I.T.D}|PEPTIDE2{[O=C(O)CCCCCCCCCCCCCCCCC(=O)[*:2]].[gGlu]}$PEPTIDE1,PEPTIDE2,16:R3-2:R2$$$V2.0)	0.27	0.24	A (>90% normalised stability)	A (>90% normalised stability)
CC[C@H](C)[C@H](NC(=O)[C@H](Cc1ccccc1)NC(=O)[C@H](CC(=O)O)NC(=O)[C@H](CCCNC(=N)N)NC(=O)[C@H](C)NC(=O)[C@H](C)NC(=O)[C@H](CCC(N)=O)NC(=O)[C@H](CCCCNC(=O)[C@H](CCCCN)NC(=O)[C@H](CCC(=O)O)NC(=O)[C@H](CCCCN)NC(=O)CC[C@H](NC(=O)CCCCCCCCCCCCCCCCCCC(=O)O)C(=O)O)NC(=O)[C@H](CC(=O)O)NC(=O)[C@H](CC(C)C)NC(=O)[C@@H](NC(=O)[C@@H](NC(=O)[C@H](C)NC(=O)[C@H](CC(C)C)NC(=O)[C@H](CCC(=O)O)NC(=O)[C@H](CO)NC(=O)[C@@H](NC(=O)[C@H](Cc1ccccc1)NC(=O)[C@@H](NC(=O)CNC(=O)[C@H](CCC(=O)O)NC(=O)C(C)(C)NC(=O)[C@@H](N)Cc1c[nH]cn1)[C@@H](C)O)[C@@H](C)O)[C@@H](C)O)[C@@H](C)CC)C(=O)N[C@@H](C)C(=O)N[C@@H](Cc1c[nH]c2ccccc12)C(=O)N[C@@H](CC(C)C)C(=O)N[C@H](C(=O)N[C@@H](CCC(N)=O)C(=O)N[C@@H](Cc1c[nH]cn1)C(=O)N[C@@H](CCCCN)C(=O)N[C@H](C(=O)N[C@H](C(=O)N[C@@H](CC(=O)O)C(=O)O)[C@@H](C)O)[C@@H](C)CC)[C@@H](C)CC [Compound 51] (HELM PEPTIDE1{H.[Aib].E.G.T.F.T.S.E.L.A.T.I.L.D.K.Q.A.A.R.D.F.I.A.W.L.I.Q.H.K.I.T.D}|PEPTIDE2{[O=C(O)CCCCCCCCCCCCCCCCCCC(=O)[*:2]].[gGlu].K.E.K}$PEPTIDE1,PEPTIDE2,16:R3-5:R2$$$V2.0)	0.02	0.18	–	–
